“Also recorded” adds a separate entry of the source.
Legend:
ocular pain = test: Patient case examples: ocular pain after topical ocular administration; type: in vivo, human; settings: Example II: person, extreme ocular discomfort with pain; 0.3% w/v solution, then twice a day
Text: A person was suffering from extreme ocular discomfort which was associated with pain. […] A person suffers a grade 2 chemical eye burn from an acidic substance. Despite being administered prednisolone acetate 1% every two hours, severe ocular pain persists. The physician will administer Formula 3 from Table I, three times a day. […] After 7-21 days, the patient experiences corneal/conjunctival epithelium and keratocytes proliferate. Collagen synthesis begins. A person suffers from aqueous tear deficient dry eye associated occasionally with moderate to severe sharp ocular pain.

[1] = system: ocular surface nociception induced by corneal scarification in Cynomolgus monkeys; test: Mild corneal abrasion (scarification) model of ocular discomfort, nictation (blinking) rate; type: in vivo, Cynomolgus monkey
Experimental: A prostanoid IP receptor antagonist (4,5-dihydro-N-[4-[[4-(1-methylethoxy)phenyl]methyl]phenyl]-1H-imadazol-2-amine RO-1138452, CAY 10441), at a dose of 0.3% w/v in an aqueous 1% polysorbate 80 in Tris-HCL (a standard ocular vehicle used in testing of ophthalmic drugs), was administered topically to the ocular surface of […] Cynomolgus monkeys. Cynomologus monkeys are the closest animal model for humans. A model that replicates an actual clinically encountered ocular condition, namely corneal abrasion, was employed.
As an animal model indicative of both ocular discomfort and pain, mild corneal scarification and measurement of the resultant increased blinking (nictation) rate was employed. The species chosen was the Cynomologous monkey and there are reasons for this selection. […] Increased rate of blinking (nictation) is recognized as a reliable end-point indicative of discomfort and pain and was, therefore, used in the studies described herein. There is a linear correlation between ocular surface sensory-evoked stimulation and blink rate in humans (Wu et al., 2014). Increased blinking frequency is associated with a diverse variety of conditions that elicit ocular discomfort and pain such as air borne noxious contaminants (Lang et al., 2008), acidic solutions (Collejo et al, 2015), dry eye conditions and wearing contact lenses (Wu et al., 2014). Thus, increased blinking rate is a universal indicator of ocular surface nociception resulting in discomfort and pain.
The drug formulation was administered post-scarification of the cornea, and at identical time points on two subsequent days. Ocular discomfort was monitored as the nictation (blinking) rate. Blinking is an established human behavioral response to corneal discomfort and irritation (Lang et al., 2008; Wu et al., 2014; Callejo et al., 2015). […]
A total of eight naïve Cynomolgus monkeys were used. […] The nictation rate (blinking rate) was measured to provide quantification of discomfort. […]

What does the source list for `CC(C)Oc1ccc(Cc2ccc(NC3=NCCN3)cc2)cc1` [4,5-dihydro-N-[4-[[4-(1-methylethoxy)phenyl]methyl]phenyl]-1H-imadazol-2-amine]?
ocular pain (ocular pain): immediate reduction of ocular pain; also recorded: all pain is reduced and eventually disappears; nictation rate in drug treated eyes compared with vehicle ([1]; 0.3% w/v topical once daily on Day 4 and Day 5 after corneal scarification on Day 3, n=4 per group, P<0.01 vs vehicle): statistically significantly lower; ocular surface nociception induced by scarification ([1]; 0.3% w/v topical, P≤0.01 non-paired t-test): significantly reduced; difference in blinking rate, control vs. treated group ([1]; two days after the surgery (Day 5-16:00)): minimal

From patent US11857537B2, “Use of prostacyclin antagonists for treating ocular surface nociception” (JENIVISION INC., priority 2016, dated 2024)
